Measurements taken from patent US8575175B2, “Therapeutic agent for chronic renal failure” (Toray Industries, Inc., priority 2008, dated 2013).
Counter-ions that a name gives are not always drawn.

Tests used:
[1] = system: ADP-induced rat platelet aggregation; assay: Platelet aggregation inhibition action in rat (ADP-induced aggregation after oral administration); format: in vivo; conditions: stimulation with 10 μM ADP; oral: sodium salt of Compound 1 30 mg/kg (blood at 1 hour), beraprost sodium 0.3 mg/kg (0.5 hour); n=6
Method: To determine the dose with which the PGI2-receptor agonistic activity is equivalent between the sodium salt of Compound 1 and beraprost sodium, the platelet aggregation inhibition action which is the major pharmacological action of PGI2-receptor agonists was used as an index for comparison. The sodium salt of Compound 1 (30 mg/kg) or beraprost sodium (0.3 mg/kg) was orally administered to rats fasted for 1 day, and blood was collected therefrom at the time when the plasma level of each compound became maximum, that is, 1 hour after the administration of the sodium salt of Compound 1 (Non-patent Document: J Pharmacol Exp Ther 322:1181-1188 2007) or 0.5 hour after the administration of beraprost sodium (Non-patent Document: Xenobiotic Metabolism and Disposition 6:713-725 1989), followed by measuring ADP-induced rat platelet aggregation. In the both groups, the experiment was carried out with n=6. The sodium salt of Compound 1, which was one of the PGI2-receptor agonists used herein, was synthesized by treating a carboxylic acid with sodium hydroxide, which carboxylic acid was synthesized according to the method described in Patent Document 4.

[2] = system: rats suffering from chronic renal failure; assay: Pharmacological effect in rats suffering from chronic renal failure: renal function, hematocrit, hemoglobin; format: in vivo, WKY rats; conditions: for Hematocrit value / Hemoglobin content: oral twice a day from week 2
Method: Rabbit anti-rat glomerular basement membrane antiserum (14-fold diluted, 3 mL/kg) was intravenously injected to WKY rats of 8 weeks old, to induce glomerulonephritis. […] Further, creatinine clearance, which is used as an alternative to glomerular filtration rate (GFR), was 2.63±0.07 mL/min. (N=3) in the normal group, and 1.22±0.04 mL/min. (N=21) in the nephritis-induced group. That is, creatinine clearance in the nephritis-induced group decreased to not more than 50% with respect to that of the normal group, and therefore it was confirmed that the nephritis-induced group developed chronic renal failure whose primary disease was glomerulonephritis. Thus, the time of establishment of the chronic renal failure was defined as 2 weeks after the induction of nephritis. […] This stage was the phase in which introduction of dialysis is considered in human, and corresponded to the most serious phase in chronic renal failure in the conservative stage.
Thus, 2 weeks after the induction of nephritis, based on the serum creatinine value, the rats suffering from chronic renal failure were grouped into the normal group (with neither induction of nephritis nor administration, n=4), the control group (administration of only a vehicle, n=7), the group to be treated with the sodium salt of Compound 1 (administration of 30 mg/kg twice a day, n=7) and the group to be treated with beraprost sodium (administration of 0.3 mg/kg twice a day, n=7), after which oral administration of the drugs were begun, followed by daily administration thereof. As the vehicle for the drugs, 0.25% sodium carboxymethylcellulose solution was used.
(§1) From 2 weeks after the induction of nephritis when the chronic renal failure was established, until 6 weeks after the induction of nephritis, urine collection and blood collection were carried out as appropriate, and the serum creatinine value, BUN and creatinine clearance were measured for each group to evaluate renal function. Further, the hematocrit, the hemoglobin content, and the SOD activity of the renal tissue, which are closely linked to the diseased state of chronic renal failure, were measured, and the expression level of mRNA of an organic anion transporter OAT-3 was quantified. The SOD activity was measured with the SOD assay kit WST (Dojindo Laboratories), and the expression level of mRNA of OAT-3 was quantified using LightCycler FastStart DNA Master SYBR Green I (Roche).
Six weeks after the induction of nephritis when the chronic renal failure in the conservative stage progressed to a serious phase in the control group, a statistical analysis was carried out. In terms of statistical difference, homoscedasticity was tested by the Bartlett's test between the control group and the respective drug-administered groups. In homoscedastic cases, the parametric Dunnett's test was carried out between the respective drug-administered groups and the control group, while in heteroscedastic cases, the nonparametric Dunnett's test was carried out therebetween, using a significance level of less than 5%.

SOD = SOD activity in the renal tissue of rats suffering from chronic renal failure; format: in vivo, WKY rats; conditions: 6 weeks after induction of nephritis, oral twice a day from week 2, mean ± SE, n=7
Method: (§2) Rabbit anti-rat glomerular basement membrane antiserum (14-fold diluted, 3 mL/kg) was intravenously injected to WKY rats of 8 weeks old, to induce glomerulonephritis. […] Further, creatinine clearance, which is used as an alternative to glomerular filtration rate (GFR), was 2.63±0.07 mL/min. (N=3) in the normal group, and 1.22±0.04 mL/min. (N=21) in the nephritis-induced group. That is, creatinine clearance in the nephritis-induced group decreased to not more than 50% with respect to that of the normal group, and therefore it was confirmed that the nephritis-induced group developed chronic renal failure whose primary disease was glomerulonephritis. Thus, the time of establishment of the chronic renal failure was defined as 2 weeks after the induction of nephritis. […]
as §1, with “The SOD activity was measured with the SOD assay kit WST (Dojindo Laboratories), and the expression level of mRNA of OAT-3 was quantified using LightCycler FastStart DNA Master SYBR Green I (Roche).” left out

OAT-3 = assay: Expression level of mRNA of OAT-3 in the renal cortex of rats suffering from chronic renal failure; format: in vivo, WKY rats; conditions: 6 weeks after induction of nephritis, oral twice a day from week 2, mean ± SE, n=7, normal group 1.00 ± 0.06
Method: as §2
as §1, with “The SOD activity was measured with the SOD assay kit WST (Dojindo Laboratories), and the expression level of mRNA of OAT-3 was quantified using LightCycler FastStart DNA Master SYBR Green I (Roche).” left out

[3] = after oral administration to rats; from cited literature; cited from earlier work
[4] = Plasma level of Compound 1 and bioavailability after administration of Compound 1 and Compound 2 to rats; format: in vivo; conditions: rat, 5 mg/kg oral vs Compound 1 1 mg/kg intravenous, Compound 1 measured in plasma, corrected for molecular weight, mean ± SE, n=3
Method: Compound 1 or Compound 2 was orally administered to rats in an amount of 5 mg/kg, and Compound 1 was intravenously administered in an amount of 1 mg/kg, after which the concentration of Compound 1 in plasma was measured. The experiment was carried out with n=3 in each of the both groups. […] Thus, it was shown that Compound 2 can be used in a manner similar to Compound 1. Compound 1 and Compound 2 used in this experiment was synthesized in accordance with the method described in Patent Document 4.

[5] = 6 weeks after induction of nephritis, oral twice a day from week 2 (Compound 1 Na salt 30 mg/kg, beraprost sodium 0.3 mg/kg), mean ± SE, n=7
[6] = 6 weeks after induction of nephritis, mean ± SE, n=7
[7] = until 6 weeks after the induction of nephritis, 30 mg/kg oral twice a day

Row | bioavailability [4] | Structure (SMILES) | rate of suppression of rat platelet aggregation [1] | BUN [2, 5] | Creatinine clearance [2, 5] | Serum creatinine value [2, 5] | Hematocrit value [2, 6] | Hemoglobin content [2, 6] | SOD activity (%, taking the activity in the normal group as 100%) (SOD) | Expression level of mRNA of OAT-3 (ratio to that of GAPD) (OAT-3) | time when the plasma level became maximum [3] | Creatinine clearance ([2]; 2 weeks after induction of nephritis, at the beginning of the administration (baseline of the treated group)) | Creatinine clearance ([2]; 6 weeks after induction of nephritis, oral twice a day from week 2 (Compound 1 Na salt 30 mg/kg, beraprost sodium 0.3 mg/kg), mean ± SE, n=7, listed as sodium salt of Compound 1) | BUN, course compared to control group (FIG. 2) [2, 7] | creatinine clearance, course compared to control group (FIG. 3) [2, 7] | serum creatinine value, course compared to control group (FIG. 1) [2, 7]
1 |  | CC#CCC(C)[C@H](O)/C=C/[C@@H]1[C@H]2c3cccc(CCCC(=O)O)c3O[C@H]2C[C@H]1O (mixture of isomers) [Beraprost sodium, reference compound] | 64.2±8.3% | 42.1 ± 6.41 mg/dL | 0.77 ± 0.13 mL/min | 0.85 ± 0.12 mg/dL | 33.9 ± 0.97% | 12.3 ± 0.28 g/dL | 67.9 ± 5.45% | 0.24 ± 0.04 | 0.5 h |  |  |  |  | 
2 | 43.3 ± 2.6% | CC(C)N(CCCCOCC(=O)O)c1cnc(-c2ccccc2)c(-c2ccccc2)n1 [Compound 1] |  |  |  |  |  |  |  |  |  |  |  |  |  | 
3 |  | CC(C)N(CCCCOCC(=O)O)c1cnc(-c2ccccc2)c(-c2ccccc2)n1 [Sodium salt of Compound 1] | 47.0±7.9% | 26.8 ± 2.49 mg/dL | 1.48 ± 0.11 mL/min | 0.47 ± 0.04 mg/dL | 37.1 ± 0.71 % | 13.7 ± 0.28 g/dL | 83.6 ± 2.52 % | 0.42 ± 0.05 | 1 h | 1.21 ± 0.06 mL/min | 1.48 ± 0.11 mL/min | kept low compared to that in the control group | kept high compared to that in the control group | kept low compared to that in the control group
